What all share (format): biochemical, Methylomonas sp. 12
The target in data set [1] is T1, ATP-Glk (Methylomonas sp., UniProt A0A3G4RI75).
T1 construct: full-length, His6-tagged (N-terminal), pET30(a)+ in E. coli Rosetta (DE3), Ni-NTA; gene 990 bp; di- to hexamers
Put plainly: effect on glucokinase activity with ATP and glucose. An excerpt: effect on glucokinase activity with ATP and glucose on ATP-Glk

In data set [2] the target is T2, polyP-Glk (Methylomonas sp., UniProt A0A3G4RHV5).
T2 construct: gene pglk; full-length, His6-tagged (N-terminal), E. coli Rosetta (DE3), Ni-NTA; gene 795 bp; dimer with polyP
Put plainly: effect on glucokinase activity with polyP and glucose. The settings on record: polyP (n=45) and glucose as substrates; activator, not a phosphoryl donor; ATP concentration not printed in table (10 mM elsewhere in the source). An excerpt:
effect on glucokinase activity with polyP and glucose on polyP-Glk

For data set [3], the target named is T2, polyP-Glk. The experiment in a line: glucose 6-phosphate dehydrogenase coupled NADP+ reduction at […] nm. The conditions noted are these: saturating polyP (n=45); Mg2+; pH 8.5; 28 °C.
The target in data set [4] is T1, ATP-Glk. Described as above. The conditions noted are these: saturating ATP; Mg2+; pH 7.5; 30 °C.
Data set [5] deals with T3, Nc1ncnc2c1ncn2[C@@H]1O[C@H](COP(=O)(O)OP(=O)(O)OP(=O)(O)O)[C@@H](O)[C@H]1O.
T3 construct: full-length, His6-tagged (N-terminal), pET30(a)+ in E. coli Rosetta (DE3), Ni-NTA; gene 990 bp; di- to hexamers
The experiment in a line: purified protein. The settings on record: saturating glucose, Mg2+, pH 7.5, 30 °C.

T2 sequence (A0A3G4RHV5 1-264): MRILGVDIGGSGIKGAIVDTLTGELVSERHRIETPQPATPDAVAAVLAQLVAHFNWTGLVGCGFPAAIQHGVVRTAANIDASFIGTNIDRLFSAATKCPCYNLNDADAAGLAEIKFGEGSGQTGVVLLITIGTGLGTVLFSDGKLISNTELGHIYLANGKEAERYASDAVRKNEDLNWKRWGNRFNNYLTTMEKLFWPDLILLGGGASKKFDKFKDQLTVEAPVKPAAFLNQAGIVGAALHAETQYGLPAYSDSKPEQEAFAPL
T1 sequence (A0A3G4RI75 1-329): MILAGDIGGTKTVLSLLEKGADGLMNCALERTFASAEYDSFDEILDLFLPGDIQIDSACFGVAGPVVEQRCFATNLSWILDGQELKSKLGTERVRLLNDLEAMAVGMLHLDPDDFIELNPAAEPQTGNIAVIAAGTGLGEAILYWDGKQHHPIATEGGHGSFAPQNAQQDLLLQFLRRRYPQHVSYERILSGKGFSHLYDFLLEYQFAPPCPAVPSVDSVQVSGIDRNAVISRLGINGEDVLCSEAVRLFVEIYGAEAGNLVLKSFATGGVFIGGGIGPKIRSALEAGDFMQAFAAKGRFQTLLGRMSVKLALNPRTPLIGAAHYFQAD

`Nc1ncnc2c1ncn2[C@@H]1O[C@H](COP(=O)(O)OP(=O)(O)O)[C@@H](O)[C@H]1O` [ADP] gave an activity at 5000 µM on ATP-Glk [1] of 48.9%. Turning to `Nc1ncnc2c1ncn2[C@@H]1O[C@H](COP(=O)(O)OP(=O)(O)OP(=O)(O)O)[C@@H](O)[C@H]1O` [ATP], the “PolyP-Glk **” value at polyP-Glk [2] is 155.0%. Turning to `OC[C@H]1OC(O)[C@H](O)[C@@H](O)[C@@H]1O` (stereo partly shown) [glucose], the Km (in general, the concentration of substrate that gives half-maximal velocity) on polyP-Glk [3] came to 450 ± 120 µM; at ATP-Glk [4], 80 ± 7 µM.

Regarding ATP-Glk (Methylomonas methanica), in data set [5], the Km stood at 78 ± 5.6 µM; the kcat (as a rule, the number of substrate molecules converted per active site and unit of time at saturation) worked out at 0.126 s⁻¹; the kcat/Km (in general, the second-order rate constant that governs catalysis at low substrate concentration) worked out at 1610 M⁻¹ s⁻¹.

Source of the values: publication PMC6406325, “ATP- and Polyphosphate-Dependent Glucokinases from Aerobic Methanotrophs” (Microorganisms, 2019).
